Measured values: PubChem BioAssay AID330 (DTP/NCI, 2004)
Several values for one entry are separate records, joined by “and”; a condition that tells them apart may be missing. Equal entries are not always repeated. Toxic doses and inconclusive results are not listed. Rule for the calls: active = survival T/C of 150% or more; inactive = T/C below 125% in these data.

Test system: P388 leukemia ip, CD2F1 mice, survival T/C
Experiment: NCI In Vivo Anticancer Drug Screen. Data for tumor model P388 Leukemia (intraperitoneal) in CD2F1 (CDF1) mice
Conditions: endpoint: median survival time, higher = longer survival
In short: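 Mice carrying the transplanted tumor received test compound or vehicle. Survival was recorded in each group, and the value is the treated-group measurement divided by that of the vehicle-treated control group.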

[1] = dose: 100.0 mg/kg/injection, schedule: Q01DX001 (ip), vehicle: Klucel (hydroxypropylcellulose) (HPC)

Measured: T/C

COc1cccc(OC(=O)c2ccc(OC)c(C3=CC(=O)C=CC3=O)c2)c1
inactive: [1] 94 % of control | dose: 200.0 mg/kg/injection, schedule: Q01DX001 (ip), vehicle: Klucel (hydroxypropylcellulose) (HPC) 93 % of control | dose: 400.0 mg/kg/injection, schedule: Q01DX001 (ip), vehicle: Klucel (hydroxypropylcellulose) (HPC) 89 % of control

O=C(CCCl)N/N=C/c1ccccc1
inactive: dose: 2.5 mg/kg/injection, schedule: Q01DX009 (ip), vehicle: saline 104 % of control | dose: 5.0 mg/kg/injection, schedule: Q01DX009 (ip), vehicle: saline 98 % of control and 101 % of control | dose: 10.0 mg/kg/injection, schedule: Q01DX009 (ip), vehicle: saline 114 % of control and 115 % of control

C/C(=N\NC(N)=S)c1ccccc1O
inactive: dose: 50.0 mg/kg/injection, schedule: Q01DX009 (ip), vehicle: Klucel (hydroxypropylcellulose) (HPC) 99 % of control | dose: 100.0 mg/kg/injection, schedule: Q01DX009 (ip), vehicle: Klucel (hydroxypropylcellulose) (HPC) 111 % of control | dose: 200.0 mg/kg/injection, schedule: Q01DX009 (ip), vehicle: Klucel (hydroxypropylcellulose) (HPC) 102 % of control

CSc1ccc(/C=N/N=c2ccn(-c3ccc(Cl)cc3)cc2)cc1
inactive: dose: 25.0 mg/kg/injection, schedule: Q01DX001 (ip), vehicle: Klucel (hydroxypropylcellulose) (HPC) 100 % of control | dose: 50.0 mg/kg/injection, schedule: Q01DX001 (ip), vehicle: Klucel (hydroxypropylcellulose) (HPC) 102 % of control | [1] 100 % of control and 91 % of control

C[Si]1(C)N[Si](C)(C)N[Si](C)(C)N1
inactive: dose: 50.0 mg/kg/injection, schedule: Q01DX009 (ip), vehicle: saline with Tween-80 103 % of control | dose: 100.0 mg/kg/injection, schedule: Q01DX009 (ip), vehicle: saline with Tween-80 95 % of control | dose: 200.0 mg/kg/injection, schedule: Q01DX009 (ip), vehicle: saline with Tween-80 108 % of control

Cc1ccc(S(=O)(=O)NCCC(=O)Nc2ccccc2)cc1
inactive: dose: 25.0 mg/kg/injection, schedule: Q01DX009 (ip), vehicle: other 102 % of control | dose: 50.0 mg/kg/injection, schedule: Q01DX009 (ip), vehicle: other 103 % of control | dose: 100.0 mg/kg/injection, schedule: Q01DX009 (ip), vehicle: other 103 % of control | dose: 200.0 mg/kg/injection, schedule: Q01DX009 (ip), vehicle: other 102 % of control | dose: 400.0 mg/kg/injection, schedule: Q01DX009 (ip), vehicle: other 96 % of control
